Columns and labels:
[1] = Relative phenolic and PAH contents of mainstream TPM by GC/MS (FTC smoking, 3rd and 4th puffs); conditions: change of relative content in mainstream TPM, tobacco treated with acetate salt alone
Text: (§1) Under FTC conditions, the 3rd and 4th puffs of the mainstream TPM are collected. The relative phenolic and PAH contents are obtained by GC/MS methods. The TPM cytotoxicity data is obtained using the Neutral Red Uptake, while mutagenicity data is obtained using Ames assays.
(§2) Under FTC conditions, the 3rd and 4th puffs of the mainstream TPM are collected. The relative phenolic and PAH contents are obtained by GC/MS methods. The TPM cytotoxicity and mutagenicity data are obtained using Neutral Red Uptake and Ames assays, respectively.

TPM mutagenicity = experiment: TPM mutagenicity, Ames assays; type: cell-based; conditions: for Mutagenicity: change of TPM mutagenicity, tobacco treated with acetate salt alone, FTC, 3rd and 4th puffs; for mutagenicity of the mainstream smoke (in words): mainstream smoke TPM of treated tobacco
Text: as §1, §2

TPM cytotoxicity = experiment: TPM cytotoxicity, Neutral Red Uptake; type: cell-based; conditions: change of TPM cytotoxicity; tobacco treated with acetate salt alone; FTC, 3rd and 4th puffs
Text: as §1, §2

CC(=O)[O-].CC(=O)[O-].CC(=O)[O-].O.[Ce+3] [7.4% Ce(OAc)3•H2O, Ce(OAc)3•H2O]
HQ [1]: −23% | Naphthalene [1]: −47% | catechol [1]: −54% | resorcinol [1]: — (No significant change (absolute change <20%)) | Mutagenicity (TPM mutagenicity): — (No significant change (absolute change <20%)) | Cytotoxicity (TPM cytotoxicity): — (No significant change (absolute change <20%))

CC(=O)[O-].CC(=O)[O-].CC(=O)[O-].O.[Eu+3] [8% Eu(OAc)3•H2O, Eu(OAc)3•H2O]
HQ [1]: −39% | Naphthalene [1]: −54% | catechol [1]: −48% | resorcinol [1]: −33% | Mutagenicity (TPM mutagenicity): −21% | mutagenicity of the mainstream smoke (in words) (TPM mutagenicity): reduced | Cytotoxicity (TPM cytotoxicity): — (No significant change (absolute change <20%))

CC(=O)[O-].CC(=O)[O-].CC(=O)[O-].[La+3] [8% La(OAc)3•xH2O (x ≦ 2), La(OAc)3•xH2O]
HQ [1]: −60% | Naphthalene [1]: −51% | catechol [1]: −41% | resorcinol [1]: −56% | Mutagenicity (TPM mutagenicity): −46% | mutagenicity of the mainstream smoke (in words) (TPM mutagenicity): reduced | Cytotoxicity (TPM cytotoxicity): −25%

CC(=O)[O-].CC(=O)[O-].CC(=O)[O-].O.[Lu+3] [8.2% Lu(OAc)3•H2O, Lu(OAc)3•H2O]
HQ [1]: −49% | Naphthalene [1]: −33% | catechol [1]: −33% | resorcinol [1]: −39% | Mutagenicity (TPM mutagenicity): — (No significant change (absolute change <20%)) | mutagenicity of the mainstream smoke (in words) (TPM mutagenicity): reduced | Cytotoxicity (TPM cytotoxicity): — (No significant change (absolute change <20%))
